Reference: patent US9724408B2, “Compositions and methods for activating stimulator of interferon gene-dependent signalling” (ADURO BIOTECH, INC., priority 2013, dated 2017)

What was measured:
THP1-Blue™ ISG cells = experiment: Type I interferon induction in THP1-Blue ISG reporter cells (QUANTI-Blue, A655); type: cell-based, human; settings: for IFN-β levels: 50 μM for 30 minutes, supernatants after overnight incubation, FIG. 10
Method: To determine the relative level of type I interferon induced in human cells by each of the native and derivative molecules as a signature of adjuvant potency, 4×10^5 THP1-Blue™ ISG cells (a human monocyte cell line transfected with an IRF-inducible secreted embryonic alkaline phosphatase reporter gene (Invivogen) which express alkaline phosphatase under the control of a promoter comprised of five IFN-stimulated response elements) were incubated with 100 μM of cyclic [G(3′,5′)pG(3′,5′)p] (CDG), cyclic [G(2′,5′)pG(3′,5′)p] (mixed linkage, or ML-CDG), or HBSS for 30 minutes at 37° C. with 5% CO2. After 30 minutes, cells were washed and plated in 96-well dish in RPMI media containing 10% FBS, and incubated at 37° C. with 5% CO2. Cell culture supernatants from each sample were collected after overnight incubation, and 20 μL of the cell culture supernatants was added to 180 μL QUANTI-Blue reagent (Invivogen) and incubated for 45 minutes to evaluate type I interferon protein levels. Readings at Absorbance 655 nm were taken every 3 minutes using a Versa Max kinetic spectrophotometer (Molecular Diagnostics).
[…]. After 30 minutes, cells were washed and plated in 96-well dish in RPMI media containing 10% FBS, and incubated at 37° C. with 5% CO2. Cell culture supernatants from each sample were collected after overnight incubation, and 20 μL of the cell culture supernatants was added to 180 μL QUANTI-Blue reagent (Invivogen) and incubated for 45 minutes. Readings at Absorbance 655 nm were taken at 15 minutes using a SpectraMax spectrophotometer (Molecular Diagnostics).
The induction of type I interferon in human cells was measured to evaluate the potency of untreated and phosphodiesterase-treated oxo, Rp monothio and Rp, Rp dithio derivatives. […]. After 30 minutes, cells were washed and plated in a 96-well dish in RPMI media containing 10% FBS, and incubated at 37° C. with 5% CO2. Cell culture supernatants from each sample were collected after 16 hr incubation, and 20 μL of the cell culture supernatants was added to 180 μL QUANTI-Blue reagent (Invivogen) and incubated for 25 minutes to evaluate type I interferon protein levels. Readings at Absorbance 655 nm were measured with a Versa Max spectrophotometer (Molecular Diagnostics).

B16 melanoma cells = experiment: B16 melanoma subcutaneous tumor model, intratumoral CDN; type: in vivo, C57BL/6 mice; settings: 25 μg intratumoral, three injections, FIG. 18; for anti-tumor efficacy (tumor volume): every three days
Method: To assess the ability of the derivative molecules to promote anti-tumor immunity, B16 melanoma cells (5×10^4 cells in 100 μL PBS) were implanted subcutaneously on the lower back of 6-8 week old female C57BL/6 mice (8 mice per group). Treatments began when tumors reached a volume of approximately 75 mm^3, on day 14 post tumor implantation. The CDN compounds were administered (25 μg in a total volume of 40 μL HBSS) by subcutaneous injection into the center of the tumor using a 27 gauge needle. Injections were repeated every three days, for a total of three intratumoral injections. The CDNs tested were cyclic [G(3′,5′)pG(3′,5′)p] (CDG); cyclic [G(2′,5′)pG(3′,5′)p] (mixed linkage, or ML CDG); Rp, Rp dithio cyclic [G(2′,5′)pG(3′,5′)p] (ML RR-CDG); cyclic [A(3′,5′)pA(3′,5′)p] (CDA); cyclic [A(2′,5′)pA(3′,5′)p] (mixed linkage, or ML CDA); and Rp, Rp dithio cyclic [A(2′,5′)pA(3′,5′)p] (ML RR-CDA).
To determine whether the effects of the derivative molecules are STING-dependent, B16 melanoma cells (5×10^4 cells in 100 μL PBS) were implanted on the right flanks of 6-8 week old female goldenticket STING^−/− mice, or wild-type C57BL/6 control mice (5 mice per group). Treatments began when tumors reached a volume of approximately 75 mm^3, on day 14 post tumor implantation. The compounds administered were Rp, Rp dithio cyclic [G(2′,5′)pG(3′,5′)p] (ML RR-CDG) (25 μg in a total volume of 40 μL HBSS), Rp, Rp dithio cyclic [A(2′,5′)pA(3′,5′)p] (ML RR-CDA) (50 μg in a total volume of 40 μL HBSS), the TLR9 agonist CpG 1668 (50 μg in a total volume of 40 μL HBSS), or HBSS vehicle control. Mice were treated by subcutaneous injection into the center of tumor only using a 27 gauge needle. Injections were repeated every three days, for a total of three intratumoral injections.

[1] = tested on: CT26 colon carcinoma cells; experiment: Abscopal model, CT26 tumors on contralateral flanks, primary tumor injected; type: in vivo, BALB/c mice; settings: 50 μg into the primary tumor only, three injections
From the text: The STING-dependent induction of tumor-specific T cell immunity protects animals against subsequent challenge with the autologous tumor. It will be apparent to those skilled in the art that advanced cancer is metastatic, and that to be effective, therapies must inhibit outgrowth of distal masses. Treatment of one or selected lesions that inhibits tumor outgrowth of distal untreated tumor masses is known as an abscopal effect. To test whether IT injection of a selected tumor with synthetic CDN derivative molecules inhibited the tumor outgrowth of a distal untreated tumor, (A) CT26 colon carcinoma cells (1×10^5 cells in 100 μL PBS) and (B) 4T1 mammary carcinoma cells (1×10^5 cells in 100 μL PBS) were implanted subcutaneously on the contralateral flanks of 6-8 week old female BALB/c mice (8 mice per group). Treatments began when tumors reached a volume of approximately 75 mm^3, on day 13 post tumor implantation. The Rp, Rp dithio cyclic [A(2′,5′)pA(3′,5′)p] (ML RR-CDA) compound (50 μg in a total volume of 40 μL HBSS), or HBSS vehicle control, was administered by subcutaneous injection into the center of the primary (right side) tumor only using a 27 gauge needle. Injections were repeated every three days, for a total of three intratumoral injections.

| Compound | IFN-β levels (THP1-Blue™ ISG cells) | induction of type I interferon, untreated compounds (THP1-Blue™ ISG cells; 50 μM, mock treated, 16 hr incubation, FIG. 12) | anti-tumor efficacy (tumor volume) (B16 melanoma cells) | tumor rejection (B16 melanoma cells; P=0.0004, student's t-test) | inhibition of the treated primary tumor, CT26 ([1]; FIG. 23A) | outgrowth of the contralateral (untreated) tumor, CT26 ([1]; P=0.0011, FIG. 23A) | tumor status by day 44 post tumor implantation (B16 melanoma cells) |
| --- | --- | --- | --- | --- | --- | --- | --- |
| Nc1ncnc2c1ncn2[C@@H]1O[C@@H]2COP(O)(=S)O[C@@H]3C(O)[C@@H](COP(O)(=S)O[C@H]2[C@H]1O)O[C@H]3n1cnc2c(N)ncnc21 (stereo partly drawn) [ML RR-CDA, dithio-[RP, RP]-cyclic-[A(2′,5′)pA(3′,5′)p]] | significantly higher IFN-β levels that either the unmodified CDA or ML CDA molecules | more potent inducers of type I interferon than the oxo | potent anti-tumor efficacy | significantly more tumor rejection than the ML CDA derivative | complete inhibition of the treated primary tumor | significantly inhibited |  |
| Nc1nc2c(ncn2[C@@H]2O[C@@H]3CO[P@@](O)(=S)O[C@@H]4[C@H](O)[C@@H](CO[P@@](O)(=S)O[C@H]3[C@H]2O)O[C@H]4n2cnc3c(=O)[nH]c(N)nc32)c(=O)[nH]1 [ML RR-CDG, dithio-[RP,RP]-cyclic-[G(2′,5′)pG(3′,5′)p]] | significantly higher levels of IFN-β than the unmodified cyclic c-di-GMP (CDG) or modified CDG molecules |  | potent anti-tumor efficacy |  |  |  | mice remained nearly tumor-free |
